This note sets out measurements from the METLIN SMRT retention time set (Domingo-Almenara et al. 2019).

SMILES strings stand for the structures.

This data set is described as follows: gradient 5% acetonitrile 3 min, to 50% in 2 min, to 85% in 15 min, held 3 min, 100 µL/min. The conditions noted are these: column: Zorbax Extend-C18 2.1 x 50 mm; eluents: water / acetonitrile, 0.1% formic acid. The procedure, abridged: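 Using water and acetonitrile that each contained 0.1% formic acid, mixtures of ~100 pure standards were separated at 100 μL/min on a Zorbax Extend-C18 column (2.1 × 50 mm, 1.8 μm). The HPLC fed a quadrupole time-of-flight mass spectrometer working in positive and negative ionization mode, with dead and dwell volumes of 40 μL and 900 μL. Data were acquired over 3 months. Retention time was read from computationally picked adduct peaks after manual inspection of each.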
`CCC(=O)N(C1CCOCC1)C1CCN(S(=O)(=O)c2ccccc2F)CC1` had an RP-LC retention time of 797 s.
Under `CCOc1ccccc1-c1noc(-c2nc(C)no2)n1` stands 986 s; under `Cc1ccc(S(=O)(=O)N2CCC3(CCC(CN4CCN(C)CC4)O3)CC2)cc1Cl` (stereo not given), 655 s; under `Cc1ccc(C)c(N2CCN(c3ccnc(SCC(=O)Nc4ccc(F)c(Cl)c4)n3)CC2)c1`, 997 s.
Under `Cc1cccn2c(NCc3ccccc3)c(-c3ccccc3OC(=O)C(C)Cl)nc12` (stereo not given) stands 1210 s; under `CCc1ccc(CNC(=O)C2(CC)CCCCC(=O)N2)cc1` (stereo not given), 771 s; under `CC1CCN(S(=O)(=O)c2ccc(-c3nnc(C(=O)N4CCC5(CC4)OCCO5)o3)cc2)CC1`, 952 s.
The molecule `O=C(NC(c1ccccc1)c1nnc(N2CCCCC2)o1)c1ccco1` (stereo not given) gave an RP-LC retention time of 774 s.
The value for `COc1ccc(N2CC(c3nc(-c4ccc(C(F)(F)F)cc4)no3)CC2=O)c(OC)c1` (stereo not given) was 1030 s.
With `O=C(CCC1CCN(c2cc(NC3CC3)ncn2)CC1)NCc1ccc(F)cc1F`, the RP-LC retention time amounted to 684 s.
In the case of `COC(=O)c1c(NCCc2c[nH]c3ccccc23)c2cccc(Cl)c2[nH]c1=O`, the RP-LC retention time came to 824 s.
The value for `CC1CCN(c2cc3c(cc2NC(=O)COc2ccc(Cl)cc2)n(C)c(=O)c(=O)n3C)CC1` was 1120 s; that for `COC(=O)C1=CN(c2ccc(F)cc2C)c2cc(F)ccc2S1(=O)=O` was 895 s; that for `Cc1ccc2c(c1)N(C(=O)CCC(=O)NCCCN1CCC(N3CCCCC3)CC1)CC(C)O2` (stereo not given) was 576 s.
Regarding `COc1ccc(C(=O)Oc2cc(C)nn2-c2nc3ccccc3[nH]2)cc1`, the RP-LC retention time was determined as 643 s.
As to `C=CCNC(=O)c1cnn(-c2cc(-c3nc(CC)no3)ccn2)c1C`, the RP-LC retention time came to 845 s.
In the case of `O=C(NCc1ccc(F)cc1)N1CCC(n2c(-c3ccco3)nc3cccnc32)C1` (stereo not given), the RP-LC retention time amounted to 730 s.
Under `Cc1ccc(C(=O)COC(=O)c2ccc3nc(C)c(C)nc3c2)cc1` stands 965 s; under `Cc1ccc(C(=O)Nc2ccc3ncnc(N4CCCCC4)c3c2)s1`, 701 s; under `COc1ccccc1-c1nc2nccc(-c3ccncc3)n2n1`, 654 s.
Under `CCOc1ccccc1NC(=O)Cn1nc(C2CC2)cc1C(=O)N1CCCC1` stands 850 s.
Under `CCN1CCC2(CC1)OC(=O)C(C)=C2C(=O)NCc1ccc(C)cc1` stands 558 s; under `CCN1C(=O)c2cccnc2Sc2cc(CNC(=O)COc3ccccc3)ccc21`, 798 s; under `COc1ccc(-c2cn3cccnc3n2)cc1NC(=O)c1c(F)cccc1F`, 653 s.
Molecule `CC(=O)N1CCC2(CC1)NC(=O)c1cccc(C)c1O2` gave an RP-LC retention time of 650 s.
Under `CCn1c(=O)sc2cc(S(=O)(=O)N3CCC(C(=O)Nc4cccc(F)c4)CC3)ccc21` stands 941 s; under `COc1ncccc1CNC(=O)c1nn(C)c2ccccc12`, 798 s; under `CC(=O)N1CCc2cc(N3CC(C(=O)Nc4ccc(F)c(C)c4)CC3=O)ccc21` (stereo not given), 740 s.
The value for `Cn1ccc(C(=O)Nc2sccc2C(N)=O)n1` was 623 s; that for `COc1ccc(OC)c(NS(=O)(=O)c2cc3c(s2)CCN(C(=O)C2CC2)C3)c1` was 821 s; that for `O=C(c1ccc2nc[nH]c2c1)N1CCCN(c2cc(-c3ccc(Br)cc3)[nH]n2)CC1` was 625 s.
Under `O=C(CN1C(=O)NC2(CCCCC2)C1=O)Nc1ccc(F)cc1F` stands 736 s; under `Cc1cc(N2CCN(C(=O)CCc3c[nH]c4ccccc34)CC2)nc2ccccc12`, 584 s.
Regarding `CCOC(=O)c1ccccc1NC(=O)CN1CCC(Cn2cnc3ccccc32)CC1`, the RP-LC retention time is 556 s.
The value for `CC1CN(CC(=O)N2CCN(c3ncccn3)CC2)c2ccccc2S1` (stereo not given) was 918 s; that for `CCCNC(=O)N(C)Cc1cccnc1OCC` was 680 s; that for `CCCn1cc(CCNC(=O)c2cc(C)ccc2C)c2cccnc21` was 827 s.
On to `CCOc1ccc(-c2cn3ccn(-c4cccc(Cl)c4)c(=O)c3n2)cc1`, for which the RP-LC retention time came to 899 s.
The value for `COc1ccc(S(=O)(=O)N2CCCCC2CC(=O)Nc2ncccn2)cc1` (stereo not given) was 647 s.
Molecule `CCOC(=O)c1c(C)[nH]c(C(=O)N2CCC(CC(=O)NCc3cccc(F)c3)CC2)c1C` returned an RP-LC retention time of 779 s.
In the case of `c1cc(-c2noc(-c3ccoc3)n2)cc(N2CCCC2)n1`, the RP-LC retention time was found to be 640 s.
The value for `Cc1cccc(-n2c(=O)c3c(cc(C)n3C)n(CC(=O)Nc3ccccc3Cl)c2=O)c1` was 842 s.
For the molecule `COCCOC1CCOC2(CCN(C(=O)c3ccsc3)CC2)C1` (stereo not given), the RP-LC retention time was 670 s.
The value for `O=S(=O)(c1cccc(C(F)(F)F)c1)N1CCOCC1` was 794 s.
In the case of `CCNC(=O)C1CCCN(c2nc3ncn(CC(=O)Nc4ccc(F)c(Cl)c4)c(=O)c3s2)C1` (stereo not given), the RP-LC retention time is 698 s.
As to `O=C(C1COc2ccccc2O1)N1CCOc2ccc(N3CCCC3)cc2C1` (stereo not given), the RP-LC retention time was determined as 794 s.
Take `CCCS(=O)(=O)N1CCC(C2CCN(C(=O)NC)CC2)C1` (stereo not given): the RP-LC retention time turned out to be 659 s.
Under `COc1ccc(S(=O)(=O)N2CCc3c(c(CN(C(C)=O)c4ccccc4)nn3C)C2)cc1Cl` stands 846 s; under `Cc1cc(C)c2nc(C)cc(C(=O)NCc3ccco3)c2c1`, 698 s; under `Cc1c(-c2ccc(Cl)cc2)noc1C1CCN(CCc2ccccc2)CC1`, 922 s.
The value for `O=C(c1ccc(OCC2CCN(C(=O)c3cccs3)CC2)cc1)N1CCOCC1` was 747 s; that for `COc1ccc(OC)c(NC(=O)C(C)C2CCN(C(=O)Nc3ccc(C)cc3)CC2)c1` (stereo not given) was 908 s.
Under `CCOC(=O)CN1CC2=C(C1=O)C(c1ccc(OC)cc1)NC(=O)N2` (stereo not given) stands 618 s; under `CCOc1cc(-c2ccccc2)nc2ccc(NS(=O)(=O)c3ccc(NC(C)=O)cc3)cc12`, 669 s.
Molecule `Cc1nc(-c2cc(S(=O)(=O)N3CCC(C(=O)N4CCc5ccccc54)CC3)c(C)s2)no1` gave an RP-LC retention time of 1040 s.
`O=C(NCCCN1CCOCC1)C1CCCN(c2ncnc3c2nc2n3CCCCC2)C1` (stereo not given) returned an RP-LC retention time of 580 s.
The value for `COc1cccc(N2CCN(CC(=O)N3CCC(C(N)=O)CC3)CC2)c1` was 582 s.
The molecule `O=C(Nc1c(-c2ccccc2)nc2ccccn12)c1c(F)cccc1F` gave an RP-LC retention time of 630 s.
Molecule `CSc1ccc(C2c3[nH]c4ccccc4c3CCN2C(=O)Cc2cccs2)cc1` (stereo not given) displayed an RP-LC retention time of 1200 s.
Under `CCCCn1cc(S(=O)(=O)Nc2ccc(Cl)cc2)c2cccnc21` stands 1020 s.
As to `CCOc1ccc(N2C(=O)N[C@@H]3C[C@]2(C)Oc2ccc(OC)cc23)cc1`, the RP-LC retention time is 864 s.
Molecule `C[C@@H]1CN(C(=O)NC2CCCC2)C[C@H]1c1nc(-c2ccncc2)no1` displayed an RP-LC retention time of 671 s.
Under `O=C(NCc1ccc(Cl)cc1)C1CCN(C(=O)c2cc3ccsc3[nH]2)CC1` stands 797 s.
In turn, `C[C@@H]1CN(C(=O)c2ccsc2)C[C@H]1c1nc(-c2ccccc2)no1` had an RP-LC retention time of 935 s.
In the case of `Cn1cc(-c2cc3n(n2)CCC(=O)N3CCCC(=O)Nc2ccccc2F)c2ccccc21`, the RP-LC retention time amounted to 844 s.
Under `Cc1ccc(NC(=O)N2CCCC(Cn3c(C4CC4)nc4cccnc43)C2)c(C)c1` (stereo not given) stands 694 s; under `CCCN1C(=O)COc2cc(-c3noc(C(=O)N4CCCC4)n3)ccc21`, 885 s.
On to `CC1CC(C)CN(CCCNC(=O)CCCn2c(=O)c3cccn3c3ccccc32)C1` (stereo not given), for which the RP-LC retention time was 659 s.
Under `COC(=O)c1cccc(N2C=C(C(=O)N3CCCC3)S(=O)(=O)c3ccc(F)cc32)c1` stands 788 s.
Molecule `CCN1C(=O)CCC2(C(=O)Nc3ccc(OC)cc3OC)CCCC=C12` (stereo not given) gave an RP-LC retention time of 789 s.
Consider `CC(C)NC(=O)c1ccc(OCC2CCCN(C(=O)c3ccc(Br)o3)C2)cc1` (stereo not given), for which the RP-LC retention time amounted to 876 s.
Under `CCCNC(=O)c1ccc2c(c1)CCN2C(C)=O` stands 635 s; under `O=C(c1cncc(Br)c1)N1CCC(Cc2nc(-c3ccc(Cl)cc3)no2)CC1`, 1050 s; under `CCN1CCN(Cc2nc3cc(NC(=O)C(C)C)ccc3n2C(C)C)CC1`, 563 s.
For the molecule `O=C(Nc1cnc(N2CCCC2)nc1)c1ccc(Br)o1`, the RP-LC retention time came to 732 s.
The molecule `O=C(Nc1ccccc1Cl)c1csc(-c2ccc(N3CCCC3)nc2)n1` yielded an RP-LC retention time of 878 s.
The molecule `COc1ncccc1CNS(=O)(=O)c1ccc(C)cc1` gave an RP-LC retention time of 817 s.
Under `CC1CCCCN1CCNC(=O)C1CCN(c2nc3cccnc3s2)CC1` (stereo not given) stands 582 s.
The value for `CC(C)n1cc(S(=O)(=O)N2CCN(c3cccc(Cl)c3)CC2)c2cccnc21` was 761 s; that for `O=C(NCc1cccs1)c1ccc2ncnc(N3CCCCC3)c2c1` was 644 s.
